Assays:
hNav1.7 = molecular target: T1, hNav1.7 (Homo sapiens, UniProt Q15858); assay type: cell-based
T1 construct: expressed in transfected cells; host or cells: HEK293T

rNav1.8 = molecular target: T2, rNav1.8 (Rattus norvegicus, UniProt Q62968); test: Patch clamp, intracellular KIFMK: block of current density (Fig 6E,F); assay type: cell-based; conditions: Fig 6F
T2 construct: expressed in transfected cells; host or cells: ND7/23
T2 sequence (Q62968 whole entry): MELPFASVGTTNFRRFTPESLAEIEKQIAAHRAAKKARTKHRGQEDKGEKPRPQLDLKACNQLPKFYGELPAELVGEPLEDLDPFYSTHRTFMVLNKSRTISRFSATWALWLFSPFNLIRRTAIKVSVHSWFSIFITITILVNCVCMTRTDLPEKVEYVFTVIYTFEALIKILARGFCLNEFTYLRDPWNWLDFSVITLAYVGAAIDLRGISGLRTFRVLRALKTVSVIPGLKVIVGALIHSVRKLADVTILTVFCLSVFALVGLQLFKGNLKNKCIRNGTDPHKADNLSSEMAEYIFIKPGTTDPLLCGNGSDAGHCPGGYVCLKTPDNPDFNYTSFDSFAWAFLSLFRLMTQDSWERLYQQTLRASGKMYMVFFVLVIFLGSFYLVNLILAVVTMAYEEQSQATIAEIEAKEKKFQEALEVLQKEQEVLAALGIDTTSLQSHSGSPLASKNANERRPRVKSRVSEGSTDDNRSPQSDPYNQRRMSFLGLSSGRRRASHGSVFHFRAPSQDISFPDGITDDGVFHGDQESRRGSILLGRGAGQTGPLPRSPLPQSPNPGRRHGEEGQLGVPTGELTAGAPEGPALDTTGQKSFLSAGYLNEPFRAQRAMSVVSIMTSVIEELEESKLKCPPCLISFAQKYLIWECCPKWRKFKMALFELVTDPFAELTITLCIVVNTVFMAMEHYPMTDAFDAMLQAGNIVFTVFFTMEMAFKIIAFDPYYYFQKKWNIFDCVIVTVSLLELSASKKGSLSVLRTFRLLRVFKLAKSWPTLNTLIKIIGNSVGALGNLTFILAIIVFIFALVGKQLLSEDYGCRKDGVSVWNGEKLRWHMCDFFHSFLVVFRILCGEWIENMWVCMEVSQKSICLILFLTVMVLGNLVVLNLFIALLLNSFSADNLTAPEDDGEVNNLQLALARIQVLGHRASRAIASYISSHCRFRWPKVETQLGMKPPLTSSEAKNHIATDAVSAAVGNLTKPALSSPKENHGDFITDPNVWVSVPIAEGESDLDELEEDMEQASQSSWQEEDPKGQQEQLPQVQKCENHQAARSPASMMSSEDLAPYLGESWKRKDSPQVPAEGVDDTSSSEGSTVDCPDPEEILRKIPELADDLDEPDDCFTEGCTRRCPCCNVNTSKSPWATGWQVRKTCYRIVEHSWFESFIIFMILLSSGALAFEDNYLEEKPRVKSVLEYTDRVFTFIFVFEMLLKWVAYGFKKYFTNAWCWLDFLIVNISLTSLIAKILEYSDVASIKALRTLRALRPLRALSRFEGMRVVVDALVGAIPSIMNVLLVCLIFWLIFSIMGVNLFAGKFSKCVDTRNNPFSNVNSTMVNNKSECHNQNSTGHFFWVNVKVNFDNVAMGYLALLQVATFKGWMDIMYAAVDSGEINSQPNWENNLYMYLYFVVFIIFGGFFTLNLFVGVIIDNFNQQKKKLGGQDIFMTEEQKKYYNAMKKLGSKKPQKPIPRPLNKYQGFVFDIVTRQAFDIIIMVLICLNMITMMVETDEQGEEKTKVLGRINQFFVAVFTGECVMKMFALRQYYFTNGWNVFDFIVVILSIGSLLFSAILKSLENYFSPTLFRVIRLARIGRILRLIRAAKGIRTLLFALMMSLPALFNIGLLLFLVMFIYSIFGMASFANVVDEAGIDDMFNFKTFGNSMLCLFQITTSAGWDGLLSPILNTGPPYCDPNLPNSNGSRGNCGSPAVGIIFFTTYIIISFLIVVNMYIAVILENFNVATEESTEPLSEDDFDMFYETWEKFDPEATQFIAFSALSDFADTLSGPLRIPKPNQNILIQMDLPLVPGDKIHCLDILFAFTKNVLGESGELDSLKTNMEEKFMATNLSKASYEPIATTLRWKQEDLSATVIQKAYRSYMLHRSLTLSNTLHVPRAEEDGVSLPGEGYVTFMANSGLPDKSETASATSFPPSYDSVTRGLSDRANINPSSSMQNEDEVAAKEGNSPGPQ

T1 sequence (Q15858 whole entry): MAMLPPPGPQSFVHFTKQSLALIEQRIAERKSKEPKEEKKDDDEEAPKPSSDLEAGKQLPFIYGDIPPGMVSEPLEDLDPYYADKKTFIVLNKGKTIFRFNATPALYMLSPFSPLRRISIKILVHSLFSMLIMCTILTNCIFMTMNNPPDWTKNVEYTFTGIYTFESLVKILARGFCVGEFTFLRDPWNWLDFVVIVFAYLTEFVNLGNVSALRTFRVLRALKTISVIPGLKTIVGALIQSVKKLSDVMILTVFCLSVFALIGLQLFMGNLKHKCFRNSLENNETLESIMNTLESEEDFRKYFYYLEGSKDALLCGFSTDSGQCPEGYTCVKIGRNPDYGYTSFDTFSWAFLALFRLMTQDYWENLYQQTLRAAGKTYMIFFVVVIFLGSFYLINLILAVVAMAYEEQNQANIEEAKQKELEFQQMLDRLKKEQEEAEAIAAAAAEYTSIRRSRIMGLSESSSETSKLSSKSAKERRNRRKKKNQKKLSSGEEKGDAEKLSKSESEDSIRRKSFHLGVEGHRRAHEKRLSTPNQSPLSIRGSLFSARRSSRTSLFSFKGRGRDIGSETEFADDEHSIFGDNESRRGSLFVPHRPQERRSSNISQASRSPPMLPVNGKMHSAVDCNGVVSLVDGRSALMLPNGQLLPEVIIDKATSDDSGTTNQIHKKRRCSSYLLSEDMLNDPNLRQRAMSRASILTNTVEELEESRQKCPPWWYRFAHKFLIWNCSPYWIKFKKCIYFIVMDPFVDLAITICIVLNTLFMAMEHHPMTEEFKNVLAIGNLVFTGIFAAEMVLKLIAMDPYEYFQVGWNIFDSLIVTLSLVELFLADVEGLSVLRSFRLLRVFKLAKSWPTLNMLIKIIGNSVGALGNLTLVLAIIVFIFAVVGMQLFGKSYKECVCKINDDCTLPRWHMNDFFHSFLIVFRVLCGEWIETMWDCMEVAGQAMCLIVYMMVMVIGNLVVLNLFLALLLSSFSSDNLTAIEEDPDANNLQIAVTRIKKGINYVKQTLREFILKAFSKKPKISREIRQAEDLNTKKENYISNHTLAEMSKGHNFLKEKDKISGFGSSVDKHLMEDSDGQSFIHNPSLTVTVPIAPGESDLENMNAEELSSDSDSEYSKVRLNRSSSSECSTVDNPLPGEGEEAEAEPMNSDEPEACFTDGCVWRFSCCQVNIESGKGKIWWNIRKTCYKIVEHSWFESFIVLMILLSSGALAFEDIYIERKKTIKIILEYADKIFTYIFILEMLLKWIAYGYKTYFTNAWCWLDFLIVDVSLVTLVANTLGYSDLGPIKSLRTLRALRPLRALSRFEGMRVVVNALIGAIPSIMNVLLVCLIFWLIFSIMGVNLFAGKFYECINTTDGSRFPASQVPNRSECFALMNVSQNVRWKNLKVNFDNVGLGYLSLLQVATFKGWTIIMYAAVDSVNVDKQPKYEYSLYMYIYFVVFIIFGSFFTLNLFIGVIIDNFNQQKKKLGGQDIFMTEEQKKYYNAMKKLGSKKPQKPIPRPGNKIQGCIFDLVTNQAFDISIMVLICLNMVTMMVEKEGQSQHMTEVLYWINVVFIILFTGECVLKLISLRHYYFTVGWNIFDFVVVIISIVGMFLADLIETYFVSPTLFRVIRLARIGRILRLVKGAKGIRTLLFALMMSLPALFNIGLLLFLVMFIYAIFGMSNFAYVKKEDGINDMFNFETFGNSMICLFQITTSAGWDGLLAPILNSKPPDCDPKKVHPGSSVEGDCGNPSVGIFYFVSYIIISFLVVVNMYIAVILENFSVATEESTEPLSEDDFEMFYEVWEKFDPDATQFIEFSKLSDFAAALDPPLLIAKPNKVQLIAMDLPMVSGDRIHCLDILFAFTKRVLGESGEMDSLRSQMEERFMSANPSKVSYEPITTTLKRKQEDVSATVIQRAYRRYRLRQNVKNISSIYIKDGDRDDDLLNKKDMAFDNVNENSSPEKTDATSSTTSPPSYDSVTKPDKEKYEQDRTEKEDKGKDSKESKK
T1 sequence (Q07699 19-218, further chain): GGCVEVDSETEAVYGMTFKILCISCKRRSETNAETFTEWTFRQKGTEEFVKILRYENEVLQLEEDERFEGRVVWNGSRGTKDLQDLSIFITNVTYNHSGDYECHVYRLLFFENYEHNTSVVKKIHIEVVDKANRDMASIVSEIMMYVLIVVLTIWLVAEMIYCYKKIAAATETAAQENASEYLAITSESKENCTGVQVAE
T1 sequence (O60939 30-215, further chain): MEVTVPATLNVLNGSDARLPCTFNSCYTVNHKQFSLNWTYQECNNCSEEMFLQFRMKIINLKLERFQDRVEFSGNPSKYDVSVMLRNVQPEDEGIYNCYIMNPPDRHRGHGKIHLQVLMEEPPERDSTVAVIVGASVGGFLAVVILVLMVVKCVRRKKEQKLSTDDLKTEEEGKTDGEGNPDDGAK

Structure (SMILES)	inhibition of rpTx1-evoked persistent currents (hNav1.7)	IC50 for rNav1.4 and hNav1.5 relative to that for rNav1.8 (rNav1.8)
NC1=N[C@H](O)[C@H]2[C@H]3O[C@]4(O)O[C@@H]([C@@H](O)[C@@]2(N1)[C@@H]4O)[C@]3(O)CO [TTX, tetrodotoxin]	completely inhibited	
CC[C@H](C)[C@H](NC(=O)[C@@H](N)CCCCN)C(=O)N[C@@H](Cc1ccccc1)C(=O)N[C@@H](CCSC)C(=O)N[C@@H](CCCCN)C(=O)O [KIFMK]		two time smaller

From publication PMC12130229, “Inherent fast inactivation particle of Nav channels as a new binding site for a neurotoxin” (The EMBO Journal, 2025)
